Laboratory results taken from patent US20230125425A1, “TRADITIONAL CHINESE MEDICINE EXTRACT COMPOSITION WITH FUNCTION OF REGULATING DEPRESSIVE EMOTION AND PREPARATION METHOD AND TRADITIONAL CHINESE MEDICINE PREPARATION THEREOF” (CHENLAND NUTRITIONALS, INC., priority 2019, published 2023).
Structures can show the parent of a compound that is named as a salt.

Tests used:
Type in all cases: in vivo
C57BL/6J mice [1] = experiment: Forced swimming test of mice; conditions: gavage daily for one month, 3.33 mg/kg, x ± SE, hydrochloride
Protocol: (§1) The mice were kept in a light, temperature and humidity controlled room with 6 mice per cage, and were allowed to eat and drink ad libitum: temperature 21±2° C. humidity 50±10%, 12 h/12 h light and dark cycle (light on at 20:00, light off at 8:00). All animal experiments were conducted in accordance with the guidelines on experiment animal welfare and use issued by NIH.
(§2) The mice were adapted for one week after their arrival, and then entered the experiment.
(§3) The normal group was given the same volume of purified water by gavage, and the gavage doses of other groups are shown in the table in the Experimental results. The mice were administrated by gavage at a fixed time (9:00) every morning, with a gavage volume of 0.1 mL·10g^−1, for one month. The behavioral test was performed 1 h after the last gavage.
During forced swimming, all animals were put into a plexiglass cylinder containing water with a deep of 20 cm at 23±1° C., individually. After 15 minutes, they were transferred to a dry environment at 30° C. for 30 minutes (pre-experiment). After 24 hours, the mice were put into the plexiglass cylinder again for 5 minutes (formal experiment). During this period, the mice were recorded with a video camera. After each mouse was tested, the water was changed and the cylinder was cleaned. SMART3.0 software was used to record the number of static suspension and the latency of static suspension.

C57BL/6J mice [2] = experiment: Tail suspension test of mice; conditions: gavage daily for one month, 3.33 mg/kg, last 4 min of 6 min, x ± SE, hydrochloride
Protocol: as §1, §2, §3
In the tail suspension test, mice were hung on the tail suspension device using medical tape at a position ⅓ from the tip of the tail, in an upright position with the head being about 30 cm from the ground and facing straight onto a camera, which was used to record the immobility time during the tail suspension test of the mice in each group. The test lasted for 6 minutes, and the last 4 minutes were used to calculate the immobility time during the tail suspension test of mice. Immobility time is defined as the time when the mouse stops struggling and is still in a hanging state.

C57BL/6J mice [3] = experiment: Open field test of mice; conditions: open field 6 min, gavage one month, 3.33 mg/kg, x ± SE, hydrochloride
Protocol: as §1, §2, §3
The test was carried out in an open field box with a length of 50 cm, a width of 50 cm and a depth of 50 cm. The bottom surface of the open field box was equally divided into 9 squares, in which the middle area was the central area, and the remaining areas were the peripheral areas. The bottom and four sides of the open field box were all white. The test was carried out in a quiet and weak red light environment. At the beginning, the mice were placed in the center of the open field box to observe their activities within 6 minutes. The total movement distance, the movement distance in the central area and the number of standing upright of the mice were recorded.

CNCCC(Oc1ccc(C(F)(F)F)cc1)c1ccccc1 (stereo not drawn) [FXT, Fluoxetine hydrochloride]
Number of static suspension (C57BL/6J mice [1]): 54.64 ± 2.704 | Number of static suspension (C57BL/6J mice [1]; listed as fluoxetine): significantly less than that of the control group | Immobility time during tail suspension (C57BL/6J mice [2]): 59.62 ± 6.270 s | Immobility time during tail suspension (C57BL/6J mice [2]; listed as fluoxetine): significantly less than that of the control group | Number of standing uprights (C57BL/6J mice [3]): 29.20 ± 2.133 | Total movement distance (C57BL/6J mice [3]): 18435 ± 950.6 | Movement distance in the central area (C57BL/6J mice [3]; listed as fluoxetine): no significant change | Number of standing uprights (C57BL/6J mice [3]; listed as fluoxetine): no significant change | Total movement distance (C57BL/6J mice [3]; listed as fluoxetine): no significant change
